The record followed here is ChEMBL document CHEMBL5512605, “Targeted regulated cell death with small molecule compounds in colorectal cancer: Current perspectives of targeted therapy and molecular mechanisms” (Eur J Med Chem, 2024).

The target of one assay is Phospholipase D1 (Homo sapiens, UniProt Q13393). Nature of the assay: Inhibition of PLD1 (unknown origin).
In the next assay the target is Phospholipase D2 (Homo sapiens, UniProt O14939). Description: Inhibition of PLD2 (unknown origin).
The next assay has as its system DLD-1. Description: Cytotoxicity against human DLD-1 cells. In kind it is functional.
Assay [1] relates to HT-29. Description: Antiproliferative activity against human HT-29 cells incubated for 48 hrs by CCK-8 method. To be noted: HT-29, 48 h. It is filed as functional, cell-based. For orientation: Tetrazolium dyes change colour on reduction, which living cells bring about.
The test system of assay [2] is SW-620. Description: Antiproliferative activity against human SW620 cells incubated for 48 hrs by CCK-8 method. It is filed as functional, cell-based. Particulars: SW-620, 48 h.
Assay [3] concerns HT-29. Description: Antiproliferative activity against human HT-29 cells. In kind it is functional.
Assay [4] has as its system SW-620. Description: Cytotoxicity against human SW620 cells. It is filed as functional, cell-based.
Assay [5] deals with HCT-116. Nature of the assay: Cytotoxicity against human HCT-116 cells. In kind it is functional, cell-based.
Assay [6] deals with HCT-116. Description: Antiproliferative activity against human HCT-116 cells assessed as inhibition of cell growth incubated for 24 hrs by cell-titer glo assay. In kind it is functional.
For another assay, the system named is MC-38. Nature of the assay: Antiproliferative activity against mouse MC38 cells assessed as inhibition of cell growth incubated for 24 hrs by cell-titer glo assay. It is filed as functional.
For assay [7], the system named is HT-29. Nature of the assay: Antiproliferative activity against human HT-29 cells assessed as inhibition of cell growth incubated for 24 hrs by cell-titer glo assay. It is filed as functional.
Assay [8] concerns RKO. Nature of the assay: Antiproliferative activity against human RKO cells assessed as inhibition of cell viability measured upto 96 hrs by CCK-8 method. In kind it is functional.
Assay [9] concerns SW-620. Description: Antiproliferative activity against human SW620 cells assessed as reduction in cell viability. In kind it is functional.
In the next assay the test system is SW480. Nature of the assay: Antiproliferative activity against human SW480 cells assessed as reduction in cell viability. In kind it is functional.
In assay [10] the test system is RKO. Description: Antiproliferative activity against human RKO cells by CCK-8 method. It is filed as functional.
A short description of assay [11]: Inhibition of NEMO/IKKbeta (unknown origin). Further details: species or system Homo sapiens.
Assay [12] relates to SW-620. Description: Antiproliferative activity against human SW620 cells by CCK-8 method. It is filed as functional.
A further assay relates to LoVo. Description: Antiproliferative activity against human LoVo cells by CCK-8 method. It is filed as functional.
The test system of assay [13] is HCT-116. Nature of the assay: Antiproliferative activity against human HCT-116 cells by CCK-8 method. It is filed as functional.
Another assay concerns HCT-15. Description: Antiproliferative activity against human HCT-15 cells by CCK-8 method. It is filed as functional.
The subject of assay [14] is HCT-116. Nature of the assay: Antiproliferative activity in human HCT-116 cells measured after 12 to 24 hrs by MTT assay. In kind it is functional, cell-based.
The subject of assay [15] is HCT-116. Description: Cytotoxicity against human HCT-116 cells incubated for 24 hrs by MTT assay. In kind it is functional, cell-based. To be noted: HCT-116, 24 h.
Assay [16] concerns SW-620. Nature of the assay: Antiproliferative activity in human SW620 cells measured after 12 to 24 hrs by MTT assay. In kind it is functional, cell-based.
Assay [17] concerns HT-29. Nature of the assay: Cytotoxicity against human HT-29 cells incubated for 24 hrs by MTT assay. It is filed as functional, cell-based. Particulars: HT-29, 24 h.
Assay [18] deals with HCT-116. Description: Cytotoxicity against human HCT-116 cells measured after 72 hrs by WST-1 assay. In kind it is functional, cell-based. Particulars: HCT-116, 72 h.
Assay [19] addresses Signal transducer and activator of transcription 3 (Homo sapiens, UniProt P40763). Nature of the assay: Inhibition of STAT3 (unknown origin).
For assay [20], the system named is SW-620. Description: Antiproliferative activity against human SW620 cells assessed as reduction in cell viability measured after 24 hrs by CCK-8 method. In kind it is functional, cell-based. To be noted: SW-620, 24 h.
The test system of assay [21] is HCT-116. Description: Antiproliferative activity against human HCT-116 cells assessed as reduction in cell viability measured after 24 hrs by CCK-8 method. It is filed as functional, cell-based. Particulars: HCT-116, 24 h.
The test system of assay [22] is HCT-116. Description: Cytotoxicity against human HCT-116 cells assessed as inhibition of cell proliferation measured after 72 hrs by SRB method. In kind it is functional, cell-based. A general note: In SRB staining, fixed cells bind dye roughly in proportion to their protein.

One may read the IC50 as the point on the concentration scale where inhibition reaches its midpoint.

Sequence of Signal transducer and activator of transcription 3 (P40763 whole entry): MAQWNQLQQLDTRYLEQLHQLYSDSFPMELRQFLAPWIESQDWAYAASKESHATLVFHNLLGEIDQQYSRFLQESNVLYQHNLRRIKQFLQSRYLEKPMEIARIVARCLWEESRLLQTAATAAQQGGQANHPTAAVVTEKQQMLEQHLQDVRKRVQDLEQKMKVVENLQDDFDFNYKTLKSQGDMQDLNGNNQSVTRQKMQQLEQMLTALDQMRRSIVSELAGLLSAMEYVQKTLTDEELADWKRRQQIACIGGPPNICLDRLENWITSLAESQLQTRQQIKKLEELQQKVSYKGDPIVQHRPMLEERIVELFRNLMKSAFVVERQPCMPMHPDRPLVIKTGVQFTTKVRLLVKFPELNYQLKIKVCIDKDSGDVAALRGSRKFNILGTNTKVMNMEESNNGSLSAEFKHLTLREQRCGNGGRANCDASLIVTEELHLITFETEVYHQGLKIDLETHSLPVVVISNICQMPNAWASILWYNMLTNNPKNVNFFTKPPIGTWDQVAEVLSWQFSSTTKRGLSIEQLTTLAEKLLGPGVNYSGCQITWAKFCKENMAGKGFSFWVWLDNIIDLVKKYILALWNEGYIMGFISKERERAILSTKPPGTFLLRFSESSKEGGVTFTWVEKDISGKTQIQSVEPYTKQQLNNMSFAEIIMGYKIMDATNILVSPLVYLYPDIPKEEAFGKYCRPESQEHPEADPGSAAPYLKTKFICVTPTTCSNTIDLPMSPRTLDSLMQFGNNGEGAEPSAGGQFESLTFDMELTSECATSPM
Sequence of Phospholipase D1 (Q13393 whole entry): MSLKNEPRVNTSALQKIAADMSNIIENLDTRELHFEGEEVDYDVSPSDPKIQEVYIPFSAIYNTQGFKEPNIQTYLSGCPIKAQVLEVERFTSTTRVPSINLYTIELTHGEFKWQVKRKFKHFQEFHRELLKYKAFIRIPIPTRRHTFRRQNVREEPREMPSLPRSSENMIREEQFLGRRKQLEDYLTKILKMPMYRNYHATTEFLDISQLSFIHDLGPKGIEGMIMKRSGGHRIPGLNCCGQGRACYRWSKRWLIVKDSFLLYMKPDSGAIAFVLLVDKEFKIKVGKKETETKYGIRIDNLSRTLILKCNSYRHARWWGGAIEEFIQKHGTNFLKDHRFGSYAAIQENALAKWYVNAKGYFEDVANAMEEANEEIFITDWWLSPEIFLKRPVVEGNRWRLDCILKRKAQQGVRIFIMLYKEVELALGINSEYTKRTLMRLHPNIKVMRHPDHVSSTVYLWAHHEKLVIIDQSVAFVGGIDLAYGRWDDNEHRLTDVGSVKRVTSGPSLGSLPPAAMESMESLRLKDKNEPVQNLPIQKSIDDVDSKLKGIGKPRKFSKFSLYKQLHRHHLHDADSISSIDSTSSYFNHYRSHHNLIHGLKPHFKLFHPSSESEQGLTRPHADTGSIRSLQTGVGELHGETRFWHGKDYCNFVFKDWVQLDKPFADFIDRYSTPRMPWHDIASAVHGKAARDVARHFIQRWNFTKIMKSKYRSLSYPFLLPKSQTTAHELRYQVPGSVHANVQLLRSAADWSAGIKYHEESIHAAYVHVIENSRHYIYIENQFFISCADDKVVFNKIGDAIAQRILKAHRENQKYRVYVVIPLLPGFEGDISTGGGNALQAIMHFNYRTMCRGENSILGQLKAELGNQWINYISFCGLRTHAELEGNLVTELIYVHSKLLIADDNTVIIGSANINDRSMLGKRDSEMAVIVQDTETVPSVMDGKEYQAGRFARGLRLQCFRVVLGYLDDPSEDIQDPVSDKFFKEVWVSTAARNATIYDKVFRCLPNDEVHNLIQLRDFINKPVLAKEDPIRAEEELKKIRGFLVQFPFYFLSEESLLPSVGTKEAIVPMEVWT
Sequence of Phospholipase D2 (O14939 whole entry): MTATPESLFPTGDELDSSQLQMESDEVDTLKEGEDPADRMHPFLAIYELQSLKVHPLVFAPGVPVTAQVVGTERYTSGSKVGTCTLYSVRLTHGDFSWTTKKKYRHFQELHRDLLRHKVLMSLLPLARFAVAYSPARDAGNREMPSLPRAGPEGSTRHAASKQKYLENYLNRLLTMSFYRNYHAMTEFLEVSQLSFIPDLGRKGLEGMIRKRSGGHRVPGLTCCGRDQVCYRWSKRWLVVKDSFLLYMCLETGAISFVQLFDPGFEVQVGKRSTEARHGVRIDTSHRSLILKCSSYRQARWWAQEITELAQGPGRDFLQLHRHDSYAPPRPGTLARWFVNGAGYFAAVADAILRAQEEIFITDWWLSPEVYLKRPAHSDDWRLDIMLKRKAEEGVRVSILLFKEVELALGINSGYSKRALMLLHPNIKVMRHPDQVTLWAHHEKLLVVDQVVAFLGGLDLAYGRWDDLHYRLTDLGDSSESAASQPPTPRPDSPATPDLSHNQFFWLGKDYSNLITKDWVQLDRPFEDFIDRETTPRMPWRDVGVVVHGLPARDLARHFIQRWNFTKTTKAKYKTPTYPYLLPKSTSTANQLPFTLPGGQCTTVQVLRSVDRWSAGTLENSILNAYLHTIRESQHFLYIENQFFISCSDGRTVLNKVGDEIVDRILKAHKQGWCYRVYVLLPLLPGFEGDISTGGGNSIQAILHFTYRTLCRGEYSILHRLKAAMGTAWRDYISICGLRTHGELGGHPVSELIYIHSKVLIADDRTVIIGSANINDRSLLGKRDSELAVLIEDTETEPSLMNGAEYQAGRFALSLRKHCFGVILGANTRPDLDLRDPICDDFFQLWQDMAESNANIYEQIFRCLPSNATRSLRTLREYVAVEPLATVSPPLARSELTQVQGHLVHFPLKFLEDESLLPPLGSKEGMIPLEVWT

For the compound `CC(=O)c1ccc2[nH]c(C(=O)Nc3cc(C(F)(F)F)cc(C(F)(F)F)c3)cc2c1`, the half-inhibitory concentration (IC50) turned out to be 0.325 µM against Phospholipase D1 and 0.0151 µM at Phospholipase D2. The IC in the assay with DLD-1 turned out to be 1 µM.

In the case of `CC(C)c1onc(-c2c(Cl)cccc2Cl)c1COc1ccc(/C=C/c2cccc(C(=O)O)c2)c(Cl)c1`, the values for the IC50 in the assay on HT-29 [1] and in the assay with SW-620 [2] were 13.8 µM and 7.6 µM, respectively.

On to `CC(C)[C@@H]1C[C@@H](O)[C@H]2[C@@]1(C)CC[C@@]1(C)[C@H]3C(=CC[C@]21C)[C@@]1(C)CC[C@H](O)C(C)(C)[C@@H]1C[C@@H]3O` [RUBIARBONOL B], for which the IC in the assay on HT-29 [3], in the assay on SW-620 [4] and with HCT-116 [5] was 10 µM in each case.

Take `O=C(NC1CCN(CCCCC2(C(=O)NCC(F)(F)F)c3ccccc3-c3ccccc32)CC1)c1ccccc1-c1ccc(C(F)(F)F)cc1` [LOMITAPIDE]: the IC with HCT-116 [6], in the assay with MC-38 and with HT-29 [7] was 10 µM throughout.

Consider `CCN(CC)C(=S)SSC(=S)N(CC)CC` [DISULFIRAM], for which the IC in the assay with RKO [8] was 0.1 µM.

Take `C[C@H]1O[C@@H](O[C@H]2[C@@H](O)C[C@H](O[C@H]3[C@@H](O)C[C@H](O[C@H]4CC[C@@]5(C)[C@H](CC[C@@H]6[C@@H]5CC[C@]5(C)[C@@H](C7=CC(=O)OC7)CC[C@]65O)C4)O[C@@H]3C)O[C@@H]2C)C[C@H](O)[C@@H]1O` [DIGITOXIN]: the IC in the assay with SW-620 [9] and in the assay with SW480 was 200 nM in each case.

In the case of `CC(C)=CC[C@@H](O)C1=CC(=O)c2c(O)ccc(O)c2C1=O` [SHIKONIN], the IC in the assay on RKO [10], with SW-620 [12], with LoVo, in the assay on HCT-116 [13] and in the assay on HCT-15 was 0.5 µM in each case. Further, the IC50 in assay [11] turned out to be 0.17 µM.

Consider `C=C[C@@]12COC(=O)C(=C)[C@@H]1[C@H]1OC(=O)C(=C)[C@@H]1[C@@H](OC(=O)C(=C)CO)C2` [VERNODALIN], for which the concentration for half-maximal inhibition (IC50) in the assay with HCT-116 [14] was 316 µM; in the assay with HCT-116 [15], 3.17 µM; in the assay with SW-620 [16], 355 µM; in the assay on HT-29 [17], 7.17 µM.

As for `COC(=O)[C@@]12OC[C@]34[C@H]([C@@H](O)[C@@H]1O)[C@@]1(C)CC(=O)C(O)=C(C)[C@@H]1C[C@H]3OC(=O)[C@H](OC(=O)/C=C(\C)C(C)(C)OC(C)=O)[C@@H]24`, the values for the half-maximal inhibitory concentration (IC50) (in the assay with HCT-116 [18]; in assay [19]) were 18.7 µM and 2.4 pM, respectively.

On to `CCC(C)/C=C(\C)[C@H]1C(C)=C[C@@]2(C)C[C@@H](C)CC[C@@H]2[C@H]1C(=O)C1=C/C(=C/c2ccc(O)cc2)NC1=O` (some centres undefined) [TALAROCONVOLUTIN A], for which the IC50 is 5.82 µM in the assay on SW-620 [20] and 9.23 µM in the assay on HCT-116 [21].

With `C/C=C\C(=O)O[C@@H]1C[C@H]2O[C@@H]3C=C(C)C(=O)C[C@]3(C)[C@]1(C)[C@]21CO1` [TRICHOTHECIN], the concentration for half-maximal inhibition (IC50) in the assay on HCT-116 [22] was 0.25 µM.
